According to patent US11352374B2 (University of Alaska Anchorage, priority 2015, dated 2022):

Assays:
physchem = conditions: 24 hours, 37° C.
Method: The kinetics of compound decomposition was followed by observing the ratio of the amount of free amine group to the original compound using ^1H NMR. For instance, Hexamethylenetetramine carboxyborane (CORCB-1) in D2O at the concentration of 12 mg/mL was incubated at 37° C. in the standard NMR tube. ^1H NMR spectra were obtained at different time points to study the kinetics of product formation. […] The ratio of integrated peaks were used for determining the percent of each species present and plotted as a function of time to show the kinetics of auto-decomposition.
^1H, ^11B, and ^13C NMR spectra were recorded at different time points to study the kinetics as well as to observe transformation of CORCB-1 into the products.
In order to determine whether CO is produced in physiological condition, CORCB acid forms were dissolved in aqueous solution at neutral pH. The solution was then subjected to incubation at 37° C. for extended period of time. For studies using NMR, CORCBs were dissolved in D2O. The kinetics of CORCB molecules breaking down to produce CO is determined by taking ^1H NMR spectra at various time points (FIG. 3).
CORCB sodium and ammonium salts were also tested for decomposition by using ^1H NMR spectroscopy. Samples were set up as in Example 1 and rate of decomposition measured (FIG. 4).

[1] = CO released on auto-decomposition in water at 37° C., head space measured with CO meter; assay type: physicochemical; conditions: 24 hours, 37° C.
Method: (§1) A test to confirm that CO is one of the decomposition products from CORCBs is done by utilizing commercially available CO meter. Four mole of the compounds at the concentrations of 6-12 mg/mL in aqueous solution was incubated at 37° C. in a sealed vessel with 50 mL gas space. CO meter was used to read the concentration of liberated CO gas from the solution. Measurement by CO meter in ppm, after converting to the micromole amount, was used for calculating the percent CO released based on the original amount of compound.
CO liberated from the molecules and coming out to the head space are detected and quantified by using CO meter.

[2] = Decomposition (amine release) in the presence of H2O2 monitored by 1H NMR; assay type: physicochemical; conditions: 24 hours, 1.5 equivalents H2O2, 37° C.
Method: (§2) The two tested are the common ROS formed naturally in the cells—a non-radical hydrogen peroxide (H2O2) and Fenton reagent which is a more reactive hydroxyl radical (.OH) formed from Fe^2+ and H2O2. Four mole of CORCB compounds were mixed in an aqueous solution with ROS and incubated in a sealed vessel. At respective times, the head space air was injected into the meter to read the amount of CO produced. For analysis by NMR spectroscopy, the reaction mixture was prepared in NMR tube in D2O solvent and incubated for the amount of time indicated.
The reaction with H2O2 is slow-acting, therefore, NMR spectroscopy can be used for monitoring the rate.

[3] = test system: normal fibroblast cells (Hs 895.Sk); assay: Cell viability in DMEM without FBS, Cell Titer Blue, normal cells; conditions: 2 mM, 48 hours
Method: Cells were seeded at the density of 3×10^3 cells per well in 96-well plate with different concentrations of CORCBs in DMEM media without FBS, and incubated at 37° C. with 5% CO2 for 2 days.

[4] = CO released in the presence of H2O2, CO meter; assay type: physicochemical; conditions: 24 hours, 1.5 equivalents H2O2, 37° C.
Method: as §1, §2

SMILES: O=C([O-])[BH2-][NH2+]C12CC3CC(CC(C3)C1)C2.[Na+] [Na-CORCB-6, Amantadine carboxyborane sodium salt]
- Decomposition rate at 24 hours, 1H NMR, Autodecomposition (physchem): not measurable
- CO release rate at 24 hours, CO meter, Autodecomposition [1]: 0.16%
- Decomposition rate at 24 hours, 1H NMR, With 1.5x H2O2 [2]: 36.90%
- viability of normal fibroblast cells (in words) [3]: increasing the percent viability of normal fibroblast cells
- CO release rate at 24 hours, CO meter, With 1.5x H2O2 [4]: 0.80%
